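Where inhibition never reached the appropriate level, the endpoint shown equals the highest concentration tested. Otherwise, values were interpolated linearly from a five-concentration, 48-hour dose response in 96-well plates. GI50 = concentration required for 50% inhibition of growth. TGI is the concentration that stops growth completely.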
Legend:
Assay in all cases: NCI tumour cell line growth inhibition, 48 h
SK-MEL-28 melanoma = test system: SK-MEL-28 melanoma
HCT-116 colon = test system: HCT-116 colon
SR leukemia = test system: SR leukemia
LOX IMVI melanoma = test system: LOX IMVI melanoma
IGROV1 ovarian = test system: IGROV1 ovarian
NCI-H460 lung = test system: NCI-H460 lung
COLO 205 colon = test system: COLO 205 colon
MCF7 breast = test system: MCF7 breast
SK-MEL-2 melanoma = test system: SK-MEL-2 melanoma
HCC-2998 colon = test system: HCC-2998 colon

Compound	TGI (SK-MEL-28 melanoma) [µM]	TGI (HCT-116 colon) [µM]	TGI (SR leukemia) [µM]	TGI (LOX IMVI melanoma) [µM]	TGI (IGROV1 ovarian) [µM]	TGI (NCI-H460 lung) [µM]	TGI (COLO 205 colon) [µM]	TGI (MCF7 breast) [µM]	TGI (SK-MEL-2 melanoma) [µM]	TGI (HCC-2998 colon) [µM]	GI50 (SK-MEL-2 melanoma) [nM]	GI50 (NCI-H460 lung) [nM]	GI50 (HCC-2998 colon) [nM]
N[C@H](Cc1ccc2oc3cc(=O)c4ccccc4c-3nc2c1)C(=O)O	> 100	> 100	> 100	> 100	> 100	> 100	> 100	65	–	–	–	–	–
COc1cc2c(cc1O)NC(=O)[C@@H]1CCCN1C2=O	> 100	> 100	> 100	> 100	> 100	> 100	> 100	> 100	> 100	> 100	–	–	–
OC(C/C=N/N=C/CC(O)(C(F)(F)Cl)C(F)(F)Cl)(C(F)(F)Cl)C(F)(F)Cl	> 10	> 10	> 10	> 10	> 10	> 10	> 10	> 10	> 10	> 10	–	–	–
C=C1CC[C@H]2C(=O)OC(c3ccoc3)C[C@]2(C)C/C=C\C=C/1C(=O)OC (stereo not given in full)	> 25	> 25	–	> 25	> 25	> 25	> 25	> 25	> 25	> 25	–	–	–
O=P1(Cc2ccccc2)N(Cc2ccccc2)[C@@H]2CCCC[C@H]2N1Cc1ccccc1	33.2	20	8.06	26.1	19.4	25.8	18.7	23.3	25.4	22	–	–	–
c1ccc2c3[nH]c(c2c1)=Nc1ccc(cc1)-c1nc2ccc(cc2o1)N=c1[nH]c(c2ccccc12)=Nc1ccc2nc(oc2c1)-c1ccc(cc1)N=3	> 100	> 100	71.6	> 100	> 100	20.5	67.8	> 100	> 100	42.7	–	–	–
Cn1nnnc1SC(F)(F)c1nc2ccccc2o1	> 100	> 100	> 100	–	> 100	> 100	> 100	> 100	> 100	> 100	–	–	–
CCOC(=O)C(NC(=O)c1ccccc1)(N1CCN(c2cc3c(cc2F)c(=O)c(C(=O)O)cn3C2CC2)CC1)C(F)(F)F (stereo not given)	74.6	31.6	45.2	–	92.5	44.6	30.8	–	38.9	38.6	–	–	–
CCOC(=O)c1ccc(-c2ccc(Cl)cc2)[nH]1	–	> 10	> 10	–	> 10	> 10	–	–	> 10	> 10	–	–	–
CC(=O)OC(CCC1(C)OC1COc1ccc(CCNC(=O)C=C(C)C)cc1)C(C)(C)OC(C)=O (stereo not given)	> 100	> 100	> 74.4	> 100	> 100	> 100	> 92.1	–	> 100	> 100	–	–	–
CC(=O)O[C@]12CCCCCC1C1(O)C(O)CCCCC12 (stereo not given in full)	> 100	–	> 100	> 100	–	> 100	> 100	–	> 100	–	–	–	–
O=C1CC(=O)NC(=NN2C(=O)/C(=C/c3ccc(Cl)c(Cl)c3)N=C2c2ccccc2)N1	78	38	36.3	–	> 100	74.9	34.1	49.8	34.4	39.6	–	–	–
CC(=O)c1c(N=[N+]=[N-])c2cccc3c2n(c1=O)CCC3	–	33.5	> 100	40.8	42.8	35.1	44.6	62.5	75.2	32	–	–	–
COC(=O)N[C@H](C(=O)NC(OCc1ccccc1)C1COC(C)(C)O1)C(C)O[Si](C)(C)C(C)(C)C (stereo not given in full)	> 100	> 100	> 100	–	> 100	> 100	> 100	> 100	–	> 100	–	–	–
c1ccc2c(c1)OCCOCCOc1ccccc1OCCO2	> 100	> 100	–	> 100	> 100	> 100	> 100	–	> 100	–	–	–	–
NC1(CCNC(=O)c2ccccc2)CCN(C(=O)c2ccccc2)CC1	–	> 100	> 100	–	> 100	> 100	> 100	> 100	> 100	–	–	–	–
Cc1n[n+](Cc2ccccc2)c2sc(N)nn12	> 100	> 100	–	> 100	> 100	–	> 100	> 100	> 100	–	–	–	–
CC(=O)NC1C(Sc2ncn(C3OC(CO)C(O)C(O)C3NC(C)=O)n2)OC(CO)C(O)C1O (stereo not given)	> 100	> 100	–	> 100	> 100	> 100	> 100	> 100	> 100	> 100	–	–	–
COc1ccc(CNc2nc(NC3CCCCC3)nc(NC3CCCCC3)n2)cc1	> 100	16	–	4.44	61.6	15.6	20.9	18.8	80.3	–	–	–	–
CN1CCc2c(sc3[nH]c(=S)[nH]c(=S)c23)C1	> 100	> 100	> 100	> 100	> 100	> 100	> 100	> 100	> 100	–	–	–	–
CCCC(=O)[O-].CCCC(=O)[O-].NCCN.NCCN.[Co+3].[O-][Cl+3]([O-])([O-])[O-]	> 100	> 100	–	> 100	> 100	> 100	> 100	–	> 100	> 100	–	–	–
O=Cc1ccc(-c2ccc(-c3ccc(CO)s3)o2)s1	> 80.1	> 40.1	2.74	16.2	–	3.21	> 85.7	> 100	97	18.3	–	–	–
CCCCC1Cc2cc(O)ccc2-c2nc3cc(O)ccc3n21 (stereo not given) (tested in a mixture with another compound)	–	27	34	30.9	28.9	32.9	29.7	37.5	–	27.4	–	–	–
COc1ccc(N2C(=O)C(=O)N(c3ccc(N=Nc4ccccc4)cc3)C2=S)cc1	41.2	35.2	> 100	37.2	31.3	34.1	31.4	–	35.1	30.1	–	–	–

Compound	TGI (SK-MEL-28 melanoma) [µM]	TGI (HCT-116 colon) [µM]	TGI (SR leukemia) [µM]	TGI (LOX IMVI melanoma) [µM]	TGI (IGROV1 ovarian) [µM]	TGI (NCI-H460 lung) [µM]	TGI (COLO 205 colon) [µM]	TGI (MCF7 breast) [µM]	TGI (SK-MEL-2 melanoma) [µM]	TGI (HCC-2998 colon) [µM]	GI50 (SK-MEL-2 melanoma) [nM]	GI50 (NCI-H460 lung) [nM]	GI50 (HCC-2998 colon) [nM]
COc1cccc(-c2nc(-c3cnccn3)n(C/C=C/c3ccccc3)n2)c1	–	–	> 10	> 10	> 10	> 10	–	> 10	> 10	> 10	–	–	–
O=C(Cn1c2ccc(Br)cc2c2nc3ccccc3nc21)NNC(=S)NC1CCCCC1	31.6	26.9	–	24.9	23.6	24.9	26	–	40.4	34.6	–	–	–
N/C(=N\S(=O)(=O)c1ccc(-c2ncccc2C(F)(F)F)s1)Nc1ccc(Cl)cc1	34.4	32.5	46.4	29.8	27.8	25.9	> 100	30	29.3	–	–	–	–
C/C=C\C(CC(=O)NCC(=O)c1c[nH]c2ccccc12)CC(=O)OC (stereo not given)	> 100	> 100	> 100	–	> 100	> 100	> 100	> 100	> 100	> 100	–	–	–
C[n+]1c2ccccc2c(NC(CCCN=C(N)N)C(=O)O)c2ccccc21 (stereo not given)	–	> 100	> 100	–	> 100	> 100	> 100	–	> 100	> 100	–	–	–
CC(=O)Nc1c(C(=N)C#N)ncn1CCO	> 100	> 100	–	> 100	> 100	> 100	> 100	> 100	> 100	> 100	–	–	–
COc1ccc(/C(Cl)=C(\C#N)c2ccc(OC)c(OC)c2)cc1OC	–	> 100	> 100	> 100	> 100	> 100	> 100	> 100	> 100	> 100	–	–	–
Cc1ccc2c(c1)CC1(Cc3cccc(C)c3C1=O)C2=O (stereo not given)	> 100	> 100	> 100	> 10	> 100	> 100	> 100	> 10	–	> 100	–	–	–
O=C(NCCN1CCOCC1)c1ccc(I)cc1	> 100	–	> 100	> 100	> 100	> 100	–	> 100	–	> 100	–	–	–
CCOP(=O)(OCC)/C(C#N)=C/c1ccc(-c2cc(C(F)(F)F)cc(C(F)(F)F)c2)o1	33	26.2	26.8	15.9	–	19.1	27.4	20	38.8	22.2	–	–	–
COC(=O)[C@@H](NC(=O)N(Cc1ccccc1)C[C@H](CC(C)C)NC(=O)[C@@H](NC(=O)OC(C)(C)C)C(C)C)C(C)C	> 100	> 100	> 100	> 100	–	> 100	> 100	–	> 100	> 100	–	–	–
CC1CC(Nc2ccc(Br)cc2)N(C(=O)c2ccc(Br)cc2)O1 (stereo not given)	> 10	> 10	> 10	–	> 10	> 10	> 10	> 10	> 10	> 10	–	–	–
COc1ccc(C2COc3c(ccc(O)c3C)C2)cc1OC (stereo not given)	> 196	153	–	128	> 200	> 193	166	> 200	154	121	–	–	–
Cc1cc(C)nc(NC(P(=O)(O)O)P(=O)(O)O)n1	–	> 100	–	> 100	> 100	> 100	> 100	> 100	–	> 100	–	–	–
COc1ccc2nc(-c3ccccc3)c(=O)[nH]c2c1	> 100	> 100	> 100	> 100	> 100	> 100	> 100	> 100	–	> 100	–	–	–
O=c1cc(CF)[nH]c(=S)[nH]1	> 100	> 100	> 100	> 100	> 100	> 100	–	–	–	> 100	–	–	–
O=c1[nH]nc(Cc2ccc(Cl)cc2)n1/N=C/c1cccs1	> 100	> 100	> 100	–	79.5	> 100	> 100	> 100	93.6	> 100	–	–	–
COCn1cnc2c(=O)nc(SC)n(-c3ccccc3)c21	–	> 100	–	> 100	> 100	–	> 100	> 100	> 100	> 100	–	–	–
CN1CC=C(c2c(N)nc(N)[nH]c2=O)CC1	> 100	> 100	> 100	–	> 100	> 100	> 100	> 100	> 100	–	–	–	–
O=c1[nH]c2nc3ccccc3c(=O)n2/c1=C/c1cccs1	> 100	> 100	> 100	> 100	> 100	–	> 100	> 100	> 100	> 100	–	–	–
CC(NC(=O)Cc1ccccc1)NC(=O)C(C)C(=O)NCc1ccccc1 (stereo not given)	–	> 100	> 100	–	> 100	> 100	> 100	> 100	> 100	–	–	–	–
C(=Nc1ccc2c(c1)Cc1ccccc1-2)c1ccccn1	> 100	> 100	> 100	> 100	> 100	> 100	–	–	> 100	–	–	–	–
COc1ccc2c(c1)c(-c1nc(-c3c[nH]c4ncccc34)cs1)cn2CCCCN1CCCCC1	–	–	–	–	–	3.5	–	–	3.54	3.29	1800	1810	1740
O=C1CCSCCC(=O)Nc2ccccc2N1	> 100	> 100	> 100	> 100	> 100	> 100	> 100	–	> 100	–	–	–	–

— PubChem BioAssay (NCI)
